Consider 23 molecules from patent US6933322B2, “Substituted naphthylenes for the treatment of non-insulin dependent diabetes mellitus” (Wyeth, priority 2002, dated 2005).

Each structure is given as a SMILES string.

The molecule `CC(C)(C)c1ccc(-c2ccc(COc3cccc4cc(NS(=O)(=O)C(F)(F)F)ccc34)c(F)c2)cc1` [Example 6, N-[5-(4′-tert-Butyl-3-fluoro-biphenyl-4-ylmethoxy)-naphthalen-2-yl]-C,C,C-trifluoro-methanesulfonamide] came in with a melting point of 162 to 164 °C.
`O=S(=O)(Nc1ccc2c(OCc3ccc(-c4ccc(F)cc4)cc3F)cccc2c1)C(F)(F)F` [Example 7, N-[5-(3,4′-Difluoro-biphenyl-4-ylmethoxy)-naphthalen-2-yl]-C,C,C-trifluoro-methanesulfonamide] yielded a melting point of 134 to 136 °C.
`O=S(=O)(Nc1ccc2c(OCc3ccc(-c4ccc(Cl)cc4)cc3F)cccc2c1)C(F)(F)F` [Example 8, N-[5-(4′-Chloro-3-fluoro-biphenyl-4-ylmethoxy)-naphthalen-2-yl]-C,C,C-trifluoro-methanesulfonamide] displayed a melting point of 151 to 153 °C.
Turning to `COC1(F)C=CC(c2cccc(COc3cccc4cc(NS(=O)(=O)C(F)(F)F)ccc34)c2)=CC1` (centres unmarked) [Example 12, N-[5-(4′-Fluoro-4′-methoxy-biphenyl-3-ylmethoxy)-naphthalen-2-yl]-C,C,C-trifluoro-methanesulfonamide], the melting point fell in the range of 125 to 127 °C.
The molecule `O=S(=O)(Nc1ccc2c(OCc3ccccc3-c3ccccc3)cccc2c1)C(F)(F)F` [Example 19, N-[5-(Biphenyl-2-ylmethoxy)-naphthalen-2-yl]-C,C,C-trifluoromethanesulfonamide] gave a melting point of 119 to 121 °C.
Molecule `COc1ccc(-c2cccc(COc3cccc4cc(NS(=O)(=O)C(F)(F)F)ccc34)c2)cc1` [Example 20, C,C,C-Trifluoro-N-[5-(4′-methoxy-biphenyl-3-ylmethoxy)-naphthalen-2-yl]-methanesulfonamide] yielded a melting point of 123 to 125 °C.
Turning to `COc1ccc(-c2ccc(Cl)cc2)cc1COc1cccc2cc(NS(=O)(=O)C(F)(F)F)ccc12` [Example 21, N-[5-(4′-Chloro-4-methoxy-biphenyl-3-ylmethoxy)-naphthalen-2-yl]-C,C,C-trifluoromethanesulfonamide], the melting point lay within 155 to 157 °C.
To `O=S(=O)(Nc1ccc2c(OCc3ccc(-c4ccc(Cl)cc4)cc3)cccc2c1)C(F)(F)F` [Example 22, N-[5-(4′-Chloro-biphenyl-4-ylmethoxy)-naphthalen-2-yl]-C,C,C-trifluoromethanesulfonamide] belongs 131 to 133 °C; to `Cc1c(COc2cccc3cc(NS(=O)(=O)C(F)(F)F)ccc23)cccc1-c1ccccc1` [Example 23, C,C,C-Trifluoro-N-[5-(2-methyl-biphenyl-3-ylmethoxy)-naphthalen-2-yl]-methanesulfonamide], 124 to 125 °C.
Regarding `O=S(=O)(Nc1ccc2c(OCc3ccc(-c4ccccn4)cc3)cccc2c1)C(F)(F)F` [Example 24, C,C,C-Trifluoro-N-[5-(4-pyridin-2-yl-benzyloxy)-naphthalen-2-yl]-methanesulfonamide], the melting point fell in the range of 119 to 120 °C.
As for `COc1ccc(-c2cc(COc3cccc4cc(NS(=O)(=O)C(F)(F)F)ccc34)ccc2F)cc1` [Example 26, C,C,C-Trifluoro-N-[5-(6-fluoro-4′-methoxy-biphenyl-3-ylmethoxy)-naphthalen-2-yl]-methanesulfonamide], the melting point was 132 to 133 °C.
As to `O=S(=O)(Nc1ccc2c(OCc3ccc(-c4ccccc4)cc3Cl)cccc2c1)C(F)(F)F` [Example 29, N-[5-(3-Chloro-biphenyl-4-ylmethoxy)-naphthalen-2-yl]-C,C,C-trifluoro-methanesulfonamide], the melting point was in the range of 131 to 134 °C.
Regarding `O=S(=O)(Nc1ccc2c(OCc3cccc(-c4ccc(F)cc4)n3)cccc2c1)C(F)(F)F` [Example 42, C,C,C-Trifluoro-N-{5-[6-(4-fluoro-phenyl)-pyridin-2-ylmethoxy]-naphthalen-2-yl}-methanesulfonamide], the melting point is 173 to 174 °C.
`O=S(=O)(Nc1ccc2c(OCc3cccc(-c4ccc(C(F)(F)F)cc4)n3)cccc2c1)C(F)(F)F` [Example 43, C,C,C-Trifluoro-N-{5-[6-(4-trifluoromethyl-phenyl)-pyridin-2-ylmethoxy]-naphthalen-2-yl}-methanesulfonamide] returned a melting point of 180 to 182 °C.
Molecule `O=S(=O)(Nc1ccc2c(OCc3csc(-c4ccc(Cl)cc4)n3)cccc2c1)C(F)(F)F` [Example 44, N-{5-[2-(4-Chloro-phenyl)-thiazol-4-ylmethoxy]-naphthalen-2-yl}-C,C,C-trifluoro-methanesulfonamide] displayed a melting point of 151 to 153 °C.
Molecule `O=S(=O)(Nc1ccc2c(OCc3csc(-c4ccc(F)cc4)n3)cccc2c1)C(F)(F)F` [Example 45, C,C,C-Trifluoro-N-{5-[2-(4-fluoro-phenyl)-thiazol-4-ylmethoxy]-naphthalen-2-yl}-methanesulfonamide] gave a melting point of 170 to 173 °C.
Molecule `CC(C)(C)c1ccc(-c2nc(COc3cccc4cc(NS(=O)(=O)C(F)(F)F)ccc34)cs2)cc1` [Example 47, N-{5-[2-(4-tert-Butyl-phenyl)-thiazol-4-ylmethoxy]-naphthalen-2-yl}-C,C,C-trifluoro-methanesulfonamide] yielded a melting point of 174 to 175 °C.
Take `O=S(=O)(Nc1ccc2c(OCc3csc(C4COc5ccccc5O4)n3)cccc2c1)C(F)(F)F` (centres unmarked) [Example 50, N-{5-[2-(2,3-Dihydro-benzo[1,4]dioxin-2-yl)-thiazol-4-ylmethoxy]-naphthalen-2-yl}-C,C,C-trifluoro-methanesulfonamide]: the melting point lay within 183 to 185 °C.
As for `O=S(=O)(Nc1ccc2c(OCc3csc(-c4ccccc4)n3)cccc2c1)C(F)(F)F` [Example 51, C,C,C-Trifluoro-N-[5-(2-phenyl-thiazol-4-ylmethoxy)-naphthalen-2-yl]-methanesulfonamide], the melting point was 89 to 99 °C.
`O=S(=O)(Nc1ccc2c(OCc3csc(-c4ccccc4Cl)n3)cccc2c1)C(F)(F)F` [Example 54, N-{5-[2-(2-Chloro-phenyl)-thiazol-4-ylmethoxy]-naphthalen-2-yl}-C,C,C-trifluoromethanesulfonamide] yielded a melting point of 128 to 129 °C.
Molecule `O=S(=O)(Nc1ccc2c(OCc3csc(-c4ccc(OC(F)(F)F)cc4)n3)cccc2c1)C(F)(F)F` [Example 55, C,C,C-Trifluoro-N-{5-[2-(4-trifluoromethoxy-phenyl)-thiazol-4-yl-methoxy]-naphthalen-2-yl}-methanesulfonamide] had a melting point of 131 to 132 °C.
In turn, `O=S(=O)(Nc1ccc2c(OCc3nc(-c4ccc(F)cc4)sc3Br)cccc2c1)C(F)(F)F` [Example 56, N-{5-[5-Bromo-2-(4-fluoro-phenyl)-thiazol-4-ylmethoxy]-naphthalen-2-yl}-C,C,C-trifluoromethanesulfonamide] came in with a melting point of 139 to 140 °C.
As for `CC(C)(C)c1ccc(C2(COc3cccc4cc(NS(=O)(=O)C(F)(F)F)ccc34)N=CNO2)cc1` (centres unmarked) [Example 59, N-{5-[5-(4-tert-Butyl-phenyl)-[1,2,4]-oxadiazol-5-ylmethoxy)-naphthalen-2-yl}-C,C,C-trifluoro-methanesulfonamide], the melting point is 154 to 155 °C.

One may read the melting point as the temperature of the solid-liquid transition.
